± gives the expanded uncertainty stated by the source.
Conditions: 293.15 K; 101.33 kPa; Liquid; Vibrating tube method

Row | Compound | mass density [kg/m3]
1 | Cc1n(CCO)cc[n+]1C.F[B-](F)(F)F [1-(2-hydroxyethyl)-2,3-dimethylimidazolium tetrafluoroborate] | 1360 ± 20
2 | C[n+]1ccn(CCO)c1.F[B-](F)(F)F [1-(2-hydroxyethyl)-3-methylimidazolium tetrafluoroborate] | 1330 ± 20
